Source: patent publication US6448261B1, “Arylamino fused pyridines” (Bristol-Myers Squibb Pharma Company, priority 1996, dated 2002)

melting point	SMILES
171 to 172 °C	CCC(CC)n1nnc2c(Nc3ccc(C(C)C)cc3Br)nc(C)nc21 [Example 19, N-[2-bromo-4-(1-methylethyl)phenyl]-3-[1-ethylpropyl]-5-methyl-3H-1,2,3-triazolo[4,5-d]pyrimidin-7-amine]
143 to 144.5 °C	CCCC(CCC)n1nnc2c(Nc3c(C)cc(C)cc3C)nc(C)nc21 [Example 37, 5-methyl-3-[1-(1-propyl)butyl]-N-(2,4,6-trimethylphenyl)-3H-1,2,3-triazolo[4,5-d]pyrimidin-7-amine]
94 to 95 °C	COCCn1nnc2c(Nc3ccc(C(C)C)cc3Br)nc(C)nc21 [Example 6, N-[2-bromo-4-(1-methylethyl)phenyl]-3-(2-methoxyethyl)-5-methyl-3H-1,2,3-triazolo[4,5-d]pyrimidin-7-amine]
67 to 69 °C	COC[C@H](Cc1ccccc1)n1nnc2c(Nc3ccc(C(C)C)cc3Br)nc(C)nc21 [Example 11, (S)-N-[2-bromo-4-(1-methylethyl)phenyl]-3-[1-(1-methoxymethyl)-2-phenylethyl]-5-methyl-3H-1,2,3-triazolo[4,5-d]pyrimidin-7-amine]
170.5 to 172 °C	CCCC(CC)n1nnc2c(Nc3c(C)cc(C)cc3C)nc(C)nc21 (racemic) [Example 35, (+/−)-3-[1-(1-ethyl)butyl]-5-methyl-N-(2,4,6-trimethylphenyl)-3H-1,2,3-triazolo[4,5-d]pyrimidin-7-amine]
127 to 128 °C	CCCCC(CC)n1nnc2c(Nc3c(Br)cc(OC)cc3OC)nc(C)cc21 (racemic) [Example 227, (+/−)-N-(2-bromo-4,6-dimethoxyphenyl)-1-(1-ethylpentyl)-6-methyl-1H-1,2,3-triazolo[4,5-c]pyridin-4-amine]
144.5 to 146 °C	CCC(COC)n1nnc2c(Nc3ccc(Br)cc3C)nc(C)nc21 (racemic) [Example 42, (+/−)-N-(4-bromo-2-methylphenyl)-3-[1-(1-methoxymethyl)propyl]-5-methyl-3H-1,2,3-triazolo[4,5-d]pyrimidin-7-amine]
144.5 to 147 °C	CCC(COC)n1nnc2c(Nc3c(C)cc(C)cc3C)nc(C)nc21 (racemic) [Example 32, (+/−)-3-[1-(1-methoxymethyl)propyl]-5-methyl-N-(2,4,6-trimethylphenyl)-3H-1,2,3-triazolo[4,5-d]pyrimidin-7-amine]
153 to 154 °C	CCC(CC)n1nnc2c(Nc3ccc(C(C)=O)cc3Br)nc(C)nc21 [Example 26, N-(4-acetyl-2-bromophenyl)-3-[1-ethylpropyl]-5-methyl-3H-1,2,3-triazolo[4,5-d]pyrimidin-7-amine]
160 to 162 °C	CCC(CC)n1nnc2c(Nc3c(C)cc(C)cc3C)nc(C)nc21 [Example 34, 3-[1-(1-ethyl)propyl]-5-methyl-N-(2,4,6-trimethylphenyl)-3H-1,2,3-triazolo[4,5-d]pyrimidin-7-amine]
171.5 to 173.5 °C	COCCn1nnc2c(Nc3c(C)cc(C)cc3C)nc(C)nc21 [Example 38, 3-(2-methoxyethyl)-5-methyl-N-(2,4,6-trimethylphenyl)-3H-1,2,3-triazolo[4,5-d]pyrimidin-7-amine]
157 to 158 °C	CCCC(CCC)n1nnc2c(Nc3c(Cl)cc(OC)cc3OC)nc(C)cc21 [Example 225, N-(2-chloro-4,6-dimethoxyphenyl)-6-methyl-1-(1-propylbutyl)-1H-1,2,3-triazolo[4,5-c]pyridin-4-amine]
126.5 to 128 °C	CCCC(CCC)n1nnc2c(Nc3ccc(Br)cc3C)nc(C)nc21 [Example 40, N-(2-Methyl-4-bromophenyl)-3-[1-(1-propyl)butyl]-5-methyl-3H-1,2,3-triazolo[4,5-d]pyrimidin-7-amine]
137 to 138 °C	CCCCC(CC)n1nnc2c(Nc3ccc(C(C)C)cc3Br)nc(C)nc21 (racemic) [Example 13, (+/−)-N-[2-bromo-4-(1-methylethyl)phenyl]-3-[1-ethylpentyl]-5-methyl-3H-1,2,3-triazolo[4,5-d]pyrimidin-7-amine]
166 to 167 °C	CCC(CC)n1nnc2c(Nc3c(Br)cc(OC)cc3OC)nc(C)cc21 [Example 222, N-(2-bromo-4,6-dimethoxyphenyl)-1-(1-ethylpropyl)-6-methyl-1H-1,2,3-triazolo[4,5-c]pyridin-4-amine]
141 to 142 °C	CCCC(CCC)n1nnc2c(Nc3c(C)cc(C)cc3Br)nc(C)nc21 [Example 21, N-(2-bromo-4,6-dimethylphenyl)-5-methyl-3-[1-propylbutyl]-3H-1,2,3-triazolo[4,5-d]pyrimidin-7-amine]
69 to 70 °C	CCCC(CCC)n1nnc2c(Nc3ccc(C(C)C)cc3Br)nc(C)nc21 [Example 15, N-[2-bromo-4-(1-methylethyl)phenyl]-3-[1-propylbutyl]-5-methyl-3H-1,2,3-triazolo[4,5-d]pyrimidin-7-amine]
155 to 156 °C	CCCCC(CC)n1nnc2c(Nc3c(Cl)cc(OC)cc3OC)nc(C)cc21 (racemic) [Example 228, (+/−)-N-(2-chloro-4,6-dimethoxyphenyl)-1-(1-ethylpentyl)-6-methyl-1H-1,2,3-triazolo[4,5-c]pyridin-4-amine]
80 to 81 °C	CCCn1nnc2c(Nc3ccc(C(C)C)cc3Br)nc(C)nc21 [Example 1, N-[2-bromo-4-(1-methylethyl)phenyl]-5-methyl-3-propyl-3H-1,2,3-triazolo[4,5-d]pyrimidin-7-amine]
154 to 155 °C	CCC(COC)n1nnc2c(Nc3c(Br)cc(OC)cc3OC)nc(C)nc21 (racemic) [Example 30, (+/−)-N-(2-bromo-4,6-dimethoxyphenyl)-3-[1-(1-methoxymethyl)propyl]-5-methyl-3H-1,2,3-triazolo[4,5-d]pyrimidin-7-amine]
133 to 134 °C	CCC(COC)n1nnc2c(Nc3ccc(C(C)=O)cc3Br)nc(C)nc21 (racemic) [Example 27, (+/−)-N-(4-acetyl-2-bromophenyl)-3-[1-(1-methoxymethyl)propyl]-5-methyl-3H-1,2,3-triazolo[4,5-d]pyrimidin-7-amine]
154 to 155 °C	CCCC(CC)n1nnc2c(Nc3ccc(C(C)C)cc3Br)nc(C)nc21 (racemic) [Example 17, (+/−)-N-[2-bromo-4-(1-methylethyl)phenyl]-3-[1-ethylbutyl]-5-methyl-3H-1,2,3-triazolo[4,5-d]pyrimidin-7-amine]
149 to 150 °C	CCC(COC)n1nnc2c(Nc3c(Cl)cc(OC)cc3OC)nc(C)nc21 (racemic) [Example 31, (+/−)-N-(2-chloro-4,6-dimethoxyphenyl)-3-[1-(1-methoxymethyl)propyl]-5-methyl-3H-1,2,3-triazolo[4,5-d]pyrimidin-7-amine]
115 to 116 °C	CCC(COC)n1nnc2c(Nc3ccc(C(C)C)cc3Br)nc(C)nc21 (racemic) [Example 9, (+/−)-N-[2-bromo-4-(1-methylethyl)phenyl]-3-[1-(1-methoxymethyl)propyl]-5-methyl-3H-1,2,3-triazolo[4,5-d]pyrimidin-7-amine]
132 to 133 °C	CCCCC(CCCC)n1nnc2c(Nc3ccc(C(C)C)cc3Br)nc(C)nc21 [Example 16, N-[2-bromo-4-(1-methylethyl)phenyl]-3-[1-butylpentyl]-5-methyl-3H-1,2,3-triazolo[4,5-d]pyrimidin-7-amine]
73 to 74 °C	CCCCC(CC)n1nnc2c(Nc3ccc(C(C)C)cc3Br)nc(C)cc21 (racemic) [Example 226, (+/−)-N-[2-bromo-4-(1-methylethyl)phenyl]-1-(1-ethylpentyl)-6-methyl-1H-1,2,3-triazolo[4,5-c]pyridin-4-amine]
140 to 141 °C	CCCC(CCC)n1nnc2c(Nc3c(Br)cc(OC)cc3OC)nc(C)cc21 [Example 224, N-(2-bromo-4,6-dimethoxyphenyl)-6-methyl-1-(1-propylbutyl)-1H-1,2,3-triazolo[4,5-c]pyridin-4-amine]
144 to 145 °C	CCC(CC)n1nnc2c(Nc3ccc(C(C)C)cc3Br)nc(C)cc21 [Example 221, N-[2-bromo-4-(1-methylethyl)phenyl]-1-(1-ethylpropyl)-6-methyl-1H-1,2,3-triazolo[4,5-c]pyridin-4-amine]
129 to 130.5 °C	CCCCC(CC)n1nnc2c(Nc3c(C)cc(C)cc3C)nc(C)nc21 (racemic) [Example 36, (+/−)-3-[1-(1-ethyl)pentyl]-5-methyl-N-(2,4,6-trimethylphenyl)-3H-1,2,3-triazolo[4,5-d]pyrimidine-7-amine]
